Measurements from ChEMBL document CHEMBL4229521, “Identification of a novel series of potent and selective CCR6 inhibitors as biological probes” (Bioorg Med Chem Lett, 2018).

Tests used:
[1] = Metabolic stability in human liver microsomes; format: ADME, microsome; settings: read-out: Stability
[2] = target: T1, C-C chemokine receptor type 6 (Homo sapiens, UniProt P51684); test: Inhibition of human CCR6 expressed in CHO cells assessed as decrease in CCL20-induced reduction of forskolin-stimulated cAMP accumulation preincubated for 30 mins followed agonist addition measured after 30 mins by HTRF assay; format: functional, cell-based
T1 sequence (P51684 whole entry): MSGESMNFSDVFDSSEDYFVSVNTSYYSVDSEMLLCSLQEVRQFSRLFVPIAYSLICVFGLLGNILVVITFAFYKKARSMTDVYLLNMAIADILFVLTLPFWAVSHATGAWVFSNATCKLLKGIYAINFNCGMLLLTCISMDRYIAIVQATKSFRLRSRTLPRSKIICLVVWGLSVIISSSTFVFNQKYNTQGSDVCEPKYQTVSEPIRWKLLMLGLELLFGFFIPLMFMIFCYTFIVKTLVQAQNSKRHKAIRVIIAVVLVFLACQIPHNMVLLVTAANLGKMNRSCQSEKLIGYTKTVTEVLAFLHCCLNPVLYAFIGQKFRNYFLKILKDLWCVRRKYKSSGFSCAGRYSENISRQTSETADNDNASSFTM

[3] = Cytotoxicity against human B cells assessed as ATP content at 30 uM by cell titer glo-based luminescence assay relative to control; settings: read-out: Activity
[4] = Solubility of the compound in buffer solution at pH 6.8; format: physicochemical
[5] = Solubility of the compound in water at pH 6.8; format: physicochemical
[6] = target: T2, C-C chemokine receptor type 7 (Homo sapiens, UniProt P32248); test: Inhibition of human CCR7 expressed in CHO cells assessed as decrease in CCL19-induced reduction of forskolin-stimulated cAMP accumulation preincubated for 30 mins followed agonist addition measured after 30 mins by HTRF assay; format: functional, cell-based
T2 sequence (P32248 whole entry): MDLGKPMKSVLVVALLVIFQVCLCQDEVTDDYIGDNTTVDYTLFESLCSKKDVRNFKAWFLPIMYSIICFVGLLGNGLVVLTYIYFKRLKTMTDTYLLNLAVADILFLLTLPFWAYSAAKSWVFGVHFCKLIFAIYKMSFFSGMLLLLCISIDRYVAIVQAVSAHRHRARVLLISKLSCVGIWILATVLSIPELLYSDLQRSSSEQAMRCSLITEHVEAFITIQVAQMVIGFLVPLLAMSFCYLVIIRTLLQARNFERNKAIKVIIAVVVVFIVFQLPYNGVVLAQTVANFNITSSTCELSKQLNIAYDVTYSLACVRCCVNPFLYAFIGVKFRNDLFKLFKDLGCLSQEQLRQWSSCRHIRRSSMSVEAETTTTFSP

[7] = target: T3, C-C chemokine receptor type 1 (Homo sapiens, UniProt P32246); test: Inhibition of human CCR1 expressed in CHO cells assessed as decrease in RANTES-induced reduction of forskolin-stimulated cAMP accumulation preincubated for 30 mins followed agonist addition measured after 30 mins by HTRF assay; format: functional, cell-based
T3 sequence (P32246 whole entry): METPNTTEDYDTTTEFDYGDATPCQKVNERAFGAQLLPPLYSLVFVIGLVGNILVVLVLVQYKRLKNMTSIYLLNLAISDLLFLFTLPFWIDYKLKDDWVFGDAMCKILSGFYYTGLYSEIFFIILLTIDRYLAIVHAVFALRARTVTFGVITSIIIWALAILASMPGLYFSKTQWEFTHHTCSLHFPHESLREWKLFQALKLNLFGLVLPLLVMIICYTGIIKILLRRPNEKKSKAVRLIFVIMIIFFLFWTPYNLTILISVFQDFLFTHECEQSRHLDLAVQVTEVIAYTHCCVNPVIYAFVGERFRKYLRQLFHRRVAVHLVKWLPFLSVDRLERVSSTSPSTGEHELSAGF

[8] = target: T4, C-C chemokine receptor type 6 (Macaca mulatta, UniProt H9YX08); test: Inhibition of monkey CCR6 expressed in CHO cells assessed as decrease in CCL20-induced reduction of forskolin-stimulated cAMP accumulation preincubated for 30 mins followed agonist addition measured after 30 mins by HTRF assay; format: cell-based
T4 sequence (H9YX08 whole entry): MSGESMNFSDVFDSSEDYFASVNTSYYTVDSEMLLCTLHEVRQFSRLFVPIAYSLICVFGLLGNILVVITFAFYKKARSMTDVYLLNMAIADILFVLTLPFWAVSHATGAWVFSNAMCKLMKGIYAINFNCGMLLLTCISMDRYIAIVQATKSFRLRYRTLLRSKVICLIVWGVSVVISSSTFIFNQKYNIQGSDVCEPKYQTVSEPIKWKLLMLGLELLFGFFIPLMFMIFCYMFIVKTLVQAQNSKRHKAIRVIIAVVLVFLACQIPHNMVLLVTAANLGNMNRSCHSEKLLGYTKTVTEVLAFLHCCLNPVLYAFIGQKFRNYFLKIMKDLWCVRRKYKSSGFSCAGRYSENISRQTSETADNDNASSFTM

[9] = target: T5, CYP2C8 (Homo sapiens, UniProt P10632); test: Inhibition of CYP2C8 (unknown origin) at 10 uM relative to control; format: ADME
T5 sequence (P10632 whole entry): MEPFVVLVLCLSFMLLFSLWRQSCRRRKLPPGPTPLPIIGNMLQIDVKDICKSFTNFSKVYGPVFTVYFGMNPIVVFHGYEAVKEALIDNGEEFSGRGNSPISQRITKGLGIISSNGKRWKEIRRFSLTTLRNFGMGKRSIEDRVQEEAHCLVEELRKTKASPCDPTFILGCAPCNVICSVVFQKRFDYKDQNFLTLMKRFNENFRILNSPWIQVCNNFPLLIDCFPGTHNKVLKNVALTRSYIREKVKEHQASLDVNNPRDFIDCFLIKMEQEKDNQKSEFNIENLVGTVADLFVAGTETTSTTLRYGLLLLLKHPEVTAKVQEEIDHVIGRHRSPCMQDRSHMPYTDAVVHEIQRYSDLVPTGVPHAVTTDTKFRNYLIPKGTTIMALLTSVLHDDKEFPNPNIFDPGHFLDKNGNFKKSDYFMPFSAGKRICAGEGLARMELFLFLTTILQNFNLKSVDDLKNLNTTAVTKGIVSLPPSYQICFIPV

[10] = target: T6, Voltage-gated inwardly rectifying potassium channel KCNH2 (Homo sapiens, UniProt Q12809); test: Inhibition of human ERG in absence of BSA
T6 sequence (Q12809 whole entry): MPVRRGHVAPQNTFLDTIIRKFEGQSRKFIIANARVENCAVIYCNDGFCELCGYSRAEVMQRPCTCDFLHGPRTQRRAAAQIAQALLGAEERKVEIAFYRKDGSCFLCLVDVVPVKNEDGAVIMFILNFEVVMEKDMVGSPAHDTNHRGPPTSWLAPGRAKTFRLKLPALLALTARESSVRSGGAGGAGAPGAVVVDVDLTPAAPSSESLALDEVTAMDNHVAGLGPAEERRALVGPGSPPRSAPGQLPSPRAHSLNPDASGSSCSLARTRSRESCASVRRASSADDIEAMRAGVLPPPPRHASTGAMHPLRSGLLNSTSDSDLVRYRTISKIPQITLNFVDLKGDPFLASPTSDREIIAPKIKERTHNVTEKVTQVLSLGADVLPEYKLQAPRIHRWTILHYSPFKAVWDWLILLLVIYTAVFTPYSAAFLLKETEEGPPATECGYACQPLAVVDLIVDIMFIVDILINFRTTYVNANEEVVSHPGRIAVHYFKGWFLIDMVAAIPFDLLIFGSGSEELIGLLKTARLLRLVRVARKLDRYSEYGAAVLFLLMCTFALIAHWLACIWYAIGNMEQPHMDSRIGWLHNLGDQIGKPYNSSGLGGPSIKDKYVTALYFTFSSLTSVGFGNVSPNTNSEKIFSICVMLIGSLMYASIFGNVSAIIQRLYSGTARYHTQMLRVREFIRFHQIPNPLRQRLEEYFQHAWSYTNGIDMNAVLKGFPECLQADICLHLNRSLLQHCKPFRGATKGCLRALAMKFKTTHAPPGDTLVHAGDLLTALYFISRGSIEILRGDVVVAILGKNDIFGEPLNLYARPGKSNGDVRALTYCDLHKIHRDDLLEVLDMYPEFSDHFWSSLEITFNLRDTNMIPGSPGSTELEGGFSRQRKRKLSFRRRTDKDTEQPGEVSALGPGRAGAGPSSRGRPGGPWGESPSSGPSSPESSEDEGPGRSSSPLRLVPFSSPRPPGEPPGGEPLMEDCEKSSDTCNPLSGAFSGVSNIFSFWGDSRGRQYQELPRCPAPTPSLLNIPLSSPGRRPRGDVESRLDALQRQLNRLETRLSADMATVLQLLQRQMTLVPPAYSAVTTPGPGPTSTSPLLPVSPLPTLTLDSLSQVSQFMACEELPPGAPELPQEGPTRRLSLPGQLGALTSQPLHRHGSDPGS

[11] = Fraction unbound in cynomolgus monkey plasma at 0.1 mg/kg, iv or 1 mg/kg, po; format: ADME, organism-based, Macaca fascicularis
[12] = target: CYP2D6 (Homo sapiens, UniProt P10635); test: Inhibition of CYP2D6 (unknown origin) at 10 uM relative to control; format: ADME
CYP2D6, sequence (P10635 whole entry): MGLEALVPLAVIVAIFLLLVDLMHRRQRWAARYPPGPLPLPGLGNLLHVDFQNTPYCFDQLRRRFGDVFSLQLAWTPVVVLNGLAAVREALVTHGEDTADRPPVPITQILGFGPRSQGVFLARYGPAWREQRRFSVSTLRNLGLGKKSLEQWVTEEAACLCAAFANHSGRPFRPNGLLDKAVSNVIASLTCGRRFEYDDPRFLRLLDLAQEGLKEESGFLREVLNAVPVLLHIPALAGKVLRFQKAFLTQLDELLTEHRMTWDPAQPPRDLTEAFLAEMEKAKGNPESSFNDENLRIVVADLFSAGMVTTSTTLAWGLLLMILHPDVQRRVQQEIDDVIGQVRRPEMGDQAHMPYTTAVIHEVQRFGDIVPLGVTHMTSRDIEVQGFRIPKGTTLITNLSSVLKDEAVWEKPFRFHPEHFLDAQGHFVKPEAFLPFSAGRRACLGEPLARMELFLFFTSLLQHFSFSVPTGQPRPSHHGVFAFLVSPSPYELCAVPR

[13] = Oral bioavailability in cynomolgus monkey at 1 mg/kg; format: ADME, organism-based, Macaca fascicularis; settings: in vivo
[14] = target: T7, CYP1A2 (Homo sapiens, UniProt P05177); test: Inhibition of CYP1A2 (unknown origin) at 10 uM relative to control; format: ADME
T7 sequence (P05177 whole entry): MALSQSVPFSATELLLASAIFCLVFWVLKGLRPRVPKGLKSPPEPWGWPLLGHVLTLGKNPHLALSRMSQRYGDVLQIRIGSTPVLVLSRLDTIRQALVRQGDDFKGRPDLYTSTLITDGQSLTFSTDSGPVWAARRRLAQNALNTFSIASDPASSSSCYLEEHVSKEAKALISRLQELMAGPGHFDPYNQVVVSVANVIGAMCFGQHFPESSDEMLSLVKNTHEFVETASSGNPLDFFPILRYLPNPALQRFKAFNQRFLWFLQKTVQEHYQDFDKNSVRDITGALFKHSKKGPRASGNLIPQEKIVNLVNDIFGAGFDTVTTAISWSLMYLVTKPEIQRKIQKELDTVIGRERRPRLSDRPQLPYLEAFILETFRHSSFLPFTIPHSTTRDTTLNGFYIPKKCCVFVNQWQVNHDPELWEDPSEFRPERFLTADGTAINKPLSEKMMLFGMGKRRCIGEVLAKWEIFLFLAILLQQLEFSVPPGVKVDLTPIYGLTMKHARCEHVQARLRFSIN

[15] = target: T6, Voltage-gated inwardly rectifying potassium channel KCNH2; test: Inhibition of human ERG in presence of BSA
[16] = Clearance in cynomolgus monkey at 0.1 mg/kg, iv or 1 mg/kg, po; format: ADME, organism-based, Macaca fascicularis; settings: in vivo
[17] = Volume of distribution at steady state in cynomolgus monkey at 0.1 mg/kg, iv or 1 mg/kg, po; format: ADME, organism-based, Macaca fascicularis; settings: in vivo, read-out: Vdss
[18] = AUC (0 to 24 hrs) in cynomolgus monkey at 1 mg/kg, po; format: ADME, organism-based, Macaca fascicularis; set-up: dose 1 mg/kg, time < 24 hr, route oral; settings: in vivo
[19] = target: CYP2C9 (Homo sapiens, UniProt P11712); test: Inhibition of CYP2C9 (unknown origin) at 10 uM relative to control; format: ADME
CYP2C9, sequence (P11712 whole entry): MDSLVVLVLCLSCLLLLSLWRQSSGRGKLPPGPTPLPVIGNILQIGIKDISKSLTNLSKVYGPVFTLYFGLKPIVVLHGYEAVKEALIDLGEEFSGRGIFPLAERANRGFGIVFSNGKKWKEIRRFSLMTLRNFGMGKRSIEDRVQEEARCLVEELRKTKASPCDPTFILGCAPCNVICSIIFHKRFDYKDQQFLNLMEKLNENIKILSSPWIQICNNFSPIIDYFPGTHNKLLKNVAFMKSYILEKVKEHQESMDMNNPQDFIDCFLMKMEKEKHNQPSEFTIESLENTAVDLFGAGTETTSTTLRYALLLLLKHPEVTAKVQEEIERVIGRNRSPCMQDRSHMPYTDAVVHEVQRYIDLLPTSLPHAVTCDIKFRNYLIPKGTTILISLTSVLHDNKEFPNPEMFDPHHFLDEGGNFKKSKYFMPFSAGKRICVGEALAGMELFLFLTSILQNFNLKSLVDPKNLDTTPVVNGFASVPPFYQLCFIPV

[20] = AUC (0 to 24 hrs) in cynomolgus monkey at 0.1 mg/kg, iv; format: ADME, organism-based, Macaca fascicularis; set-up: dose 0.1 mg/kg, time < 24 hr, route intravenous; settings: in vivo
[21] = target: CYP3A4 (Homo sapiens, UniProt P08684); test: Inhibition of CYP3A4 (unknown origin) at 10 uM relative to control; format: ADME
CYP3A4, sequence (P08684 whole entry): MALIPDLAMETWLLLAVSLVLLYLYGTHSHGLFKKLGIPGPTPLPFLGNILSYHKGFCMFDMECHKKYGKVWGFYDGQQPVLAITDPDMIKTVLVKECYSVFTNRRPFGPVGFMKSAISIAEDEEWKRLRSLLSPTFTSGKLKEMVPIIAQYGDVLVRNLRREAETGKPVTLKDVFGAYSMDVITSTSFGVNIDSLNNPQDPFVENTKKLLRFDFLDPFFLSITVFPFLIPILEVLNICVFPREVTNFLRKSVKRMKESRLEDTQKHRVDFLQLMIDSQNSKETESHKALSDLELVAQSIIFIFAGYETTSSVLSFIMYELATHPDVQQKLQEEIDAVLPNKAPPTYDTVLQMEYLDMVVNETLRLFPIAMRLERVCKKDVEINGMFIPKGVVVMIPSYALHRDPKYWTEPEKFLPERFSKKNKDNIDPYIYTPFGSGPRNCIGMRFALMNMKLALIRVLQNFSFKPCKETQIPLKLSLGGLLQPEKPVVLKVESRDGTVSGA

Row | Structure (SMILES) | IC50 [2] | IC50 [6] | IC50 [7] | other results
1 | COc1ccc(S(=O)(=O)N2CCC(Nc3ccc(C#N)cn3)CC2)cc1 | 2.5 µM |  |  | microsomal CLint [1]: 19 µL/min/mg; viability at 30 µM [3]: 72.7%
2 | CC(C)(C)c1ccc(S(=O)(=O)N2CCC(Nc3ccc(C#N)cn3)CC2)cc1 |  |  |  | solubility [4]: < 0.1 µg/mL; solubility [5]: < 0.1 µg/mL
3 | COc1ccc(S(=O)(=O)N2CCC(Nc3ccc(C#N)cn3)C2)cc1 (stereo not given) | > 30 µM |  |  | 
4 | Cc1ccc(S(=O)(=O)N2CCC(Nc3ccc(C#N)cn3)CC2)cc1 | 3.1 µM | > 30 µM | > 30 µM | IC50 [8]: 1.3 µM
5 | NC(=O)c1cc(-c2ccc(S(=O)(=O)[C@H]3CC[C@H](Nc4ccc(C(F)(F)F)cn4)CC3)cc2)ccn1 |  | 9.4 µM | > 30 µM | inhibition at 10 µM [9]: < 50%; inhibition (INH) [10]: < 50%; fraction unbound [11]: 0.01; inhibition at 10 µM [12]: < 50%; bioavailability [13]: 65%; inhibition at 10 µM [14]: < 50%; inhibition (INH) [15]: < 50%; clearance [16]: 1.1 mL/min/kg; Vd [17]: 0.704 L/kg; AUC(0-t) at 24 h [18]: 10000 ng·h/mL; inhibition at 10 µM [19]: 51%; AUC(0-t) at 24 h [20]: 1550 ng·h/mL; inhibition at 10 µM [21]: < 50%
6 | N#Cc1ccc(NC2CCN(S(=O)(=O)c3ccc(Cl)cc3)CC2)nc1 | 1.5 µM |  |  | 
7 | COc1ccc(S(=O)(=O)N2CCC(Nc3ccc(C#N)cc3)CC2)cc1 | 1.9 µM |  |  | microsomal CLint [1]: 69 µL/min/mg; viability at 30 µM [3]: 44.9%
8 | CC(=O)Nc1ccc(S(=O)(=O)N2CCC(Nc3ccc(C#N)cn3)CC2)cc1 | > 30 µM |  |  | 
9 | NC(=O)c1ccc(-c2ccc(S(=O)(=O)[C@H]3CC[C@H](Nc4ccc(C(F)(F)F)cn4)CC3)cc2)cc1 |  | > 30 µM | > 30 µM | 

Further lines, with some results ahead:

Row | IC50 [2] | IC50 [6] | IC50 [7] | Structure (SMILES) | other results
10 |  | > 30 µM | > 30 µM | N#Cc1ccc(-c2ccc(S(=O)(=O)[C@H]3CC[C@H](Nc4ccc(C(F)(F)F)cn4)CC3)cc2)cc1 | 
11 | > 30 µM |  |  | N#Cc1ccc(NC2CCN(S(=O)(=O)c3cccc(-c4ccccc4)c3)CC2)nc1 | 
12 | > 30 µM |  |  | COc1ccc(S(=O)(=O)N2CCC(Nc3cc(C#N)ccn3)CC2)cc1 | 
13 | 7.4 µM |  |  | COc1ccc(S(=O)(=O)N2CCC(Nc3cccc(C#N)n3)CC2)cc1 | 
14 | > 30 µM |  |  | Cc1cccc(S(=O)(=O)N2CCC(Nc3ccc(C#N)cn3)CC2)c1 | 
15 | > 30 µM |  |  | COc1ccc(NC2CCN(S(=O)(=O)c3ccc(OC)cc3)CC2)cc1 | 
16 |  | 18 µM | > 30 µM | NC(=O)c1ccc(-c2ccc(S(=O)(=O)[C@H]3CC[C@H](Nc4ccc(C(F)(F)F)cn4)CC3)cc2)cn1 | 
17 | 0.29 µM | > 30 µM | > 30 µM | N#Cc1ccc(NC2CCN(S(=O)(=O)c3ccc(-c4ccccc4)cc3)CC2)nc1 | IC50 [8]: 0.28 µM
